# Results published in patent publication US20260365653A1, “IRREVERSIBLE MUTEGFR INHIBITORS” (Bayer Aktiengesellschaft, priority 2022, published 2026).
# pIC50: −log10 of the molar value. Values joined by “and” are separate entries in the source; they are usually repeats but may differ in a detail not shown here. Equal values may be shown once.
# Assays:
# [1] = target: T1, mutEGFR (D770_N771insNPG, T790) (Homo sapiens, UniProt P00533, INS770NPG/T790M); test: mutEGFR (D770_N771insNPG, T790) kinase assay; type: biochemical
# T1 construct: exact insNPG construct not described; in-house EGFR proteins were N-terminal GST fusions from baculovirus/insect cells (borders R669-A1210 given only for WT, insSVD, insASV)
# T1 sequence (P00533 with tags, fused parts or gaps INS770NPG/T790M limits assumed): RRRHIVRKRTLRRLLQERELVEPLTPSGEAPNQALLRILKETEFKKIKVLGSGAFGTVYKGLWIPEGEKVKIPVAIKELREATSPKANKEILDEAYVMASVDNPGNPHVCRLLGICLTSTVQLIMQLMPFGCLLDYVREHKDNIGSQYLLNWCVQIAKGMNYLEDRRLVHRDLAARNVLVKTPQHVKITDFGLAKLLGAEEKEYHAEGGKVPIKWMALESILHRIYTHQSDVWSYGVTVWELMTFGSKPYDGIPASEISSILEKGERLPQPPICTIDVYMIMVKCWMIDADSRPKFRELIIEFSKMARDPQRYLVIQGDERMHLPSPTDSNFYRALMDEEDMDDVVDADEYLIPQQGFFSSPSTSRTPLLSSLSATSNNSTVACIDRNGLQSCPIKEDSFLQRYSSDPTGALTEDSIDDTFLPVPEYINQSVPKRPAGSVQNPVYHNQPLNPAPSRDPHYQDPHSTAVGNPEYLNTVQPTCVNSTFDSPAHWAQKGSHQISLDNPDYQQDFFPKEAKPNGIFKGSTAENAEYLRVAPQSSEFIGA
# Source text: The different EGFR proteins used in the biochemical kinase activity inhibition assays were generated inhouse by expression in insect cells using Baculo Virus system and subsequent purification as described in the following paragraphs.
# The cDNAs encoding the various protein sequences from human EGFR human (P00533) were optimized for expression in eukaryotic cells and synthesized by the GeneArt Technology at Life Technologies.
# [2] = target: T2, mutEGFR (D770_N771insSVD) (Homo sapiens, UniProt P00533, DUP768-770); test: Exon20-Mutant-EGFR (D770_N771insSVD) kinase assay (TR-FRET); type: biochemical
# T2 construct: GST-EGFR #3 (SVD between D770 and N771); made in house; host or cells: Sf9 insect cells (baculovirus)
# T2 sequence (P00533 with tags, fused parts or gaps DUP768-770): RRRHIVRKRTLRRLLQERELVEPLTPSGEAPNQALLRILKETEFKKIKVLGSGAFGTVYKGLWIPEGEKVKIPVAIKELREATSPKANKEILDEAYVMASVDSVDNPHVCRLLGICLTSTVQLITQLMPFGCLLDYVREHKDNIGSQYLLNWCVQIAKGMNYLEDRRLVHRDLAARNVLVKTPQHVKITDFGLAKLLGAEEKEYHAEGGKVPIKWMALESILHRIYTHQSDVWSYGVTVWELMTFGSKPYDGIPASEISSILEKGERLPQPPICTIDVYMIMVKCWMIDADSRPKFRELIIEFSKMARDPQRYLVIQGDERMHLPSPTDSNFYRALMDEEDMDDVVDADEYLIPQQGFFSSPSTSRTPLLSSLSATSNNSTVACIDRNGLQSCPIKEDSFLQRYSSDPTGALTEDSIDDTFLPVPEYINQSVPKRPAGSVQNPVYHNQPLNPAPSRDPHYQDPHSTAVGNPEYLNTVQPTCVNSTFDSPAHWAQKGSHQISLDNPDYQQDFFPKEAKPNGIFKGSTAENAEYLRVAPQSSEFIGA
# BA/F3 (insSVD) cells = test: Ba/F3-EGFR-insSVD cell survival assay (Cell Titer-Glo); type: cell-based; details: Mus musculus, BaF3, 48 h
# In short: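 Ba/F3 cells stably expressing retroviral EGFR-insSVD or insSVD T790M, grown without IL-3 on 10 ng/ml EGF, 4000 cells/well. Compound pinned in, 48 h at 37° C. Viability by CellTiter-Glo luminescence.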
# [3] = mutEGFR (D770_N771insSVD) kinase assay IC50, Table 2a, D770_N771insSVD, 2 mM ATP
# [4] = Table 3a, cell survival, Cell Titer-Glo, with 10 ng/ml EGF, without IL-3
# [5] = mutEGFR (D770_N771insSVD) kinase assay IC50, Table 2b (from US Priority Patent Application), mutEGFR D770_N771insSVD
Compound,"pIC50 ([1]; Table 2a, D770_N771insNPG)","pIC50 [2, 3]","pIC50 [2, 5]","pIC50 ([1]; Table 2b (from US Priority Patent Application), mutEGFR D770_N771insNPG)",pIC50 (BA/F3 (insSVD) cells; [4]),"pIC50 (BA/F3 (insSVD) cells; Table 3b, Ba/F3 EGFR-insSVD)"
"C[C@H]1Cn2nc(-c3ccc(Cl)cc3)c(-c3ccncc3)c2CN1C(=O)/C=C/CN(C)C [Example 245, (2E)-1-[(6S)-2-(4-chlorophenyl)-6-methyl-3-(pyridin-4-yl)-6,7-dihydropyrazolo[1,5-a]pyrazin-5(4H)-yl]-4-(dimethylamino)but-2-en-1-one]",9.58,9.95,,,7.92,
"CN1CC=C(C(=O)N2CCn3nc(-c4ccc(Cl)cc4F)c(-c4ccncc4)c3C2)C1 [Example 76, [2-(4-chloro-2-fluorophenyl)-3-(pyridin-4-yl)-6,7-dihydropyrazolo[1,5-a]pyrazin-5(4H)-yl](1-methyl-2,5-dihydro-1H-pyrrol-3-yl) methanone]",7.11,7.52,,,6.18,
"Cc1c[nH]c2nccc(-c3c(-c4ccc(C(F)(F)F)cc4)nn4c3CN(C(=O)/C=C/CN(C)C)[C@H](C)C4)c12 [Example 266, (2E)-4-(dimethylamino)-1-[(6R)-6-methyl-3-(3-methyl-1H-pyrrolo[2,3-b]pyridin-4-yl)-2-[4-(trifluoromethyl)phenyl]-6,7-dihydropyrazolo[1,5-a]pyrazin-5(4H)-yl]but-2-en-1-one]",5.45,6.34,,,6.92,
C=CC(=O)N1CCn2nc(-c3cccc4ccoc34)c(-c3ccncc3)c2C1 [Example 107],9.25,9.07,,,7.38,
"C=CC(=O)N1CCn2nc(-c3ccc(Cl)c(C)c3)c(-c3ccncc3)c2C1 [Example 2, 1-[2-(4-chloro-3-methylphenyl)-3-(pyridin-4-yl)-6,7-dihydropyrazolo[1,5-a]pyrazin-5(4H)-yl]prop-2-en-1-one]",9.84,9.98 and > 10.14,> 10.14 and 9.98,9.84,7.69,7.69
"C=CC(=O)N1CCn2nc(Nc3ccccc3)c(-c3ccncc3)c2C1 [Example 272, 1-[2-anilino-3-(pyridin-4-yl)-6,7-dihydropyrazolo[1,5-a]pyrazin-5(4H)-yl]prop-2-en-1-one]",7.98,8.63,,,7.06,
"CCc1cc(-c2nn3c(c2-c2ccncc2)CN(C(=O)/C=C/CN(C)C)CC3)ccc1Cl [Example 32, formic acid-(2E)-1-[2-(4-chloro-3-ethylphenyl)-3-(pyridin-4-yl)-6,7-dihydropyrazolo[1,5-a]pyrazin-5(4H)-yl]-4-(dimethylamino)but-2-en-1-one (1:1)]",8.41,8.88,,,5.97,
"CN(C)C/C=C/C(=O)N1CCn2nc(-c3ccc(C(F)(F)F)cc3F)c(-c3ccncc3)c2C1 [Example 152, (2E)-4-(dimethylamino)-1-{2-[2-fluoro-4-(trifluoromethyl)phenyl]-3-(pyridin-4-yl)-6,7-dihydropyrazolo[1,5-a]pyrazin-5(4H)-yl}but-2-en-1-one]",8.34,8.98,,,6.59,
"CN(C)C/C=C/C(=O)N1CCn2nc(-c3cc(Cl)ccc3F)c(-c3ccncc3)c2C1 [Example 149, (2E)-1-[2-(5-chloro-2-fluorophenyl)-3-(pyridin-4-yl)-6,7-dihydropyrazolo[1,5-a]pyrazin-5(4H)-yl]-4-(dimethylamino)but-2-en-1-one]",8.59,8.81,,,6.70,
"C=CC(=O)N1CCn2nc(-c3ccc(Cl)c(CC)c3)c(-c3ccncc3)c2C1 [Example 190, 1-[2-(4-chloro-3-ethylphenyl)-3-(pyridin-4-yl)-6,7-dihydropyrazolo[1,5-a]pyrazin-5(4H)-yl]prop-2-en-1-one]",8.52,8.99,,,6.76,
"C=CC(=O)N1CCn2nc(-c3ccccc3F)c(-c3ccncc3)c2C1 [Example 136, 1-[2-(2-fluorophenyl)-3-(pyridin-4-yl)-6,7-dihydropyrazolo[1,5-a]pyrazin-5(4H)-yl]prop-2-en-1-one]",8.32,8.96,,,7.17,
"C=CC(=O)N1CCn2nc(-c3cccc(C#N)c3)c(-c3ccncc3)c2C1 [Example 141, 3-[5-(prop-2-enoyl)-3-(pyridin-4-yl)-4,5,6,7-tetrahydropyrazolo[1,5-a]pyrazin-2-yl]benzonitrile]",7.71,7.49,,,6.75,
"CN(C)C/C=C/C(=O)N1CCn2nc(-c3ccc(Cl)cc3CO)c(-c3ccncc3)c2C1 [Example 35, (2E)-1-{2-[4-chloro-2-(hydroxymethyl)phenyl]-3-(pyridin-4-yl)-6,7-dihydropyrazolo[1,5-a]pyrazin-5(4H)-yl}-4-(dimethylamino)but-2-en-1-one]",8.53,8.87,,,6.10,
"COc1cccc(-c2nn3c(c2-c2ccncc2)CN(C(=O)/C=C/CN(C)C)CC3)c1 [Example 155, (2E)-4-(dimethylamino)-1-[2-(3-methoxyphenyl)-3-(pyridin-4-yl)-6,7-dihydropyrazolo[1,5-a]pyrazin-5(4H)-yl]but-2-en-1-one]",8.28,8.19,,,5.98,

# Now from value to compound, other results behind:
"pIC50 ([1]; Table 2a, D770_N771insNPG)","pIC50 [2, 3]","pIC50 [2, 5]","pIC50 ([1]; Table 2b (from US Priority Patent Application), mutEGFR D770_N771insNPG)",Compound,pIC50 (BA/F3 (insSVD) cells; [4]),"pIC50 (BA/F3 (insSVD) cells; Table 3b, Ba/F3 EGFR-insSVD)"
8.90,9.47,,,"C=CC(=O)N1Cc2c(-c3ccncc3)c(-c3ccc(F)cc3)nn2C(CCO)C1 (centres unmarked) [Example 223, 1-(2-(4-fluorophenyl)-7-(2-hydroxyethyl)-3-(pyridin-4-yl)-6,7-dihydropyrazolo[1,5-a]pyrazin-5(4H)-yl) prop-2-en-1-one]",7.74,
8.35,8.93,8.93,,"CN(C)C/C=C/C(=O)N1CCn2nc(-c3ccc(F)cc3)c(-c3ccnc(Nc4ccccc4)c3)c2C1 [Example 21, (2E)-1-[3-(2-anilinopyridin-4-yl)-2-(4-fluorophenyl)-6,7-dihydropyrazolo[1,5-a]pyrazin-5(4H)-yl]-4-(dimethylamino)but-2-en-1-one]",7.00,7.00
9.59,9.89,,,"C=CC(=O)N1CCn2nc(-c3ccc4ccccc4c3F)c(-c3ccncc3)c2C1 [Example 111, 1-[2-(1-fluoronaphthalen-2-yl)-3-(pyridin-4-yl)-6,7-dihydropyrazolo[1,5-a]pyrazin-5(4H)-yl]prop-2-en-1-one]",7.56,
7.24,6.43,,,"C=CC(=O)N1CCn2nc(-c3ccc(F)cc3)c(-c3ccnc4[nH]ccc34)c2C1C (single isomer, unassigned; isomer 1) [Example 249, 1-(2-(4-fluorophenyl)-4-methyl-3-(1H-pyrrolo[2,3-b]pyridin-4-yl)-6,7-dihydropyrazolo[1,5-a]pyrazin-5(4H)-yl) prop-2-en-1-one (isomer 1)]",7.01,
9.48,9.77,,,"C=CC(=O)N1Cc2c(-c3ccncc3)c(-c3ccc4ccsc4c3)nn2CC1C (racemic) [Example 234, 1-[(6RS)-2-(1-benzothiophen-6-yl)-6-methyl-3-(pyridin-4-yl)-6,7-dihydropyrazolo[1,5-a]pyrazin-5(4H)-yl]prop-2-en-1-one]",6.91,
8.66,9.14,,,"C=CC(=O)N1Cc2c(-c3ccncc3)c(-c3ccc(OC)cc3)nn2CC1C (racemic) [Example 228, 1-[(6RS)-2-(4-methoxyphenyl)-6-methyl-3-(pyridin-4-yl)-6,7-dihydropyrazolo[1,5-a]pyrazin-5(4H)-yl]prop-2-en-1-one]",7.35,
9.26,9.28,,,"C=CC(=O)N1CCn2nc(-c3ccc(F)c4ccccc34)c(-c3ccncc3)c2C1 [Example 106, 1-[2-(4-fluoronaphthalen-1-yl)-3-(pyridin-4-yl)-6,7-dihydropyrazolo[1,5-a]pyrazin-5(4H)-yl]prop-2-en-1-one]",6.67,
7.68,7.16,,,"Cc1c[nH]c2nccc(-c3c(-c4ccc(F)cc4)nn4c3CN(C(=O)/C=C/CN(C)C)[C@@H](C)C4)c12 [Example 257, (2E)-4-(dimethylamino)-1-[(6S)-2-(4-fluorophenyl)-6-methyl-3-(3-methyl-1H-pyrrolo[2,3-b]pyridin-4-yl)-6,7-dihydropyrazolo[1,5-a]pyrazin-5(4H)-yl]but-2-en-1-one]",7.51,
7.75,7.36,,,"C=CC(=O)N1CCn2nc(-c3cccc(Cl)c3)c(-c3ccnc4[nH]cc(C)c34)c2C1 [Example 177, 1-[2-(3-chlorophenyl)-3-(3-methyl-1H-pyrrolo[2,3-b]pyridin-4-yl)-6,7-dihydropyrazolo[1,5-a]pyrazin-5(4H)-yl]prop-2-en-1-one]",7.23,
7.22,7.59,,,"C=CC(=O)N1Cc2c(-c3ccncc3)c(-c3ccc(F)cc3)nn2CC1(C)C [Example 210, 1-[2-(4-fluorophenyl)-6,6-dimethyl-3-(pyridin-4-yl)-6,7-dihydropyrazolo[1,5-a]pyrazin-5(4H)-yl]prop-2-en-1-one]",6.26,
